Results taken from patent US20110098269A1, “Substituted Pyridazinone Derivatives as Histamine-3 (H3) Receptor Ligands” (Cephalon, Inc., priority 2008, published 2011).
Structures can show the parent of a compound that is named as a salt.

How the values were obtained:
[1] = biological target: T1, human H3 receptor (Homo sapiens, UniProt Q9Y5N1); test: Human H3 radioligand binding ([3H]-N-alpha-methylhistamine, CHO cell membranes); conditions: Human H3 binding constant, class symbols; read-out: hH3 Ki
T1 construct: expressed in transfected cells
T1 sequence (Q9Y5N1 whole entry): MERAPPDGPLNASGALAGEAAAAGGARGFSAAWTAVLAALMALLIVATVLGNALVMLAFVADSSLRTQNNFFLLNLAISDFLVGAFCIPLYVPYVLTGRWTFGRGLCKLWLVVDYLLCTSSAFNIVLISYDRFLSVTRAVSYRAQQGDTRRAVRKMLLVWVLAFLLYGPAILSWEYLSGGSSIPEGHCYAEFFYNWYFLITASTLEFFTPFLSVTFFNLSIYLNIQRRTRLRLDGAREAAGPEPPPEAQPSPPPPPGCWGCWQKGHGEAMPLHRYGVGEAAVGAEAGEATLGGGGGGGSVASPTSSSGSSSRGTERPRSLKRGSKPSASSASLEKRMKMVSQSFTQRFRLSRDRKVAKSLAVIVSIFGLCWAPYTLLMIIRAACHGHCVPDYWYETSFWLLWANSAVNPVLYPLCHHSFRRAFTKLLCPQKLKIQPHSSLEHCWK
Description: (§1) Methods: CHO cells stably expressing the human H3 receptor (GenBank: NM_007232) were harvested and cell pellets were frozen (−80° C.). Cell pellets were resuspended in 5 mM Tris-HCl, pH 7.5 with 5 nM EDTA and a cocktail of protease inhibitors (Complete Protease Inhibitor Tablets, Roche Diagnostics). Cells were disrupted using a polytron cell homogenizer and the suspension was centrifuged at 1000×g for 10 minutes at 4° C. The pellet was discarded and the supernatant centrifuged at 40,000×g for 30 min at 4° C. This membrane pellet was washed in membrane buffer containing 50 mM Tris-HCl, pH 7.5 with 0.6 mM EDTA, 5 mM MgCl2 and protease inhibitors, recentrifuged as above and the final pellet resuspended in membrane buffer plus 250 mM sucrose and frozen at −80° C.
(§2) Radioligand Binding. Membranes were resuspended in 50 mM Tris HCl (pH 7.4), 5 mM MgCl2, 0.1% BSA. The membrane suspensions (10 μg protein per well) were incubated in a 96 well microtiter plate with [^3H]-N-alpha-methylhistamine (approximately 1 nM final concentration), test compounds at various concentrations (0.01 nM-30 μM) and scintillation proximity beads (Perkin Elmer, FlashBlueGPCR Scintillating Beads) in a final volume of 80 μl for 4 hours at room temperature, protected from light. Non-specific binding was determined in the presence of 10 μM clobenpropit. Radioligand bound to receptor, and therefore in proximity to the scintillation beads, was measured using a MicroBeta scintillation counter.

[2] = biological target: T2, rat histamine H3 receptor (Rattus norvegicus, UniProt Q9QYN8); test: Rat H3 radioligand binding ([3H]-N-alpha-methylhistamine, CHO-A3 cell membranes); conditions: Rat H3 binding constant, class symbols; read-out: rH3 Ki
T2 construct: encoding the entire 445-amino-acid rat histamine H3 receptor; expressed in transfected cells
T2 sequence (Q9QYN8 whole entry): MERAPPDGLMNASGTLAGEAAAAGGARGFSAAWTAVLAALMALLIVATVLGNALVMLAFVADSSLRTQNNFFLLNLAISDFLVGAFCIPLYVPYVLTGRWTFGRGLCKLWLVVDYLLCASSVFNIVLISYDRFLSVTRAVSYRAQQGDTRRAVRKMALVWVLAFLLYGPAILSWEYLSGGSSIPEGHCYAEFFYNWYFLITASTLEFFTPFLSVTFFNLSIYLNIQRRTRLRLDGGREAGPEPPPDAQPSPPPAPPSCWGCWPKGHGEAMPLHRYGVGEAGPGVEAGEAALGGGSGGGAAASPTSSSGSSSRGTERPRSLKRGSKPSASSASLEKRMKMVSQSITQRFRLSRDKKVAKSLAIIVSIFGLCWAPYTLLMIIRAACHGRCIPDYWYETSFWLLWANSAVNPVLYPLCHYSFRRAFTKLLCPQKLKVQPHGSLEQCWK
Description: as §1, with “Cell line development and membrane preparation. The rat” for “Methods: CHO cells stably expressing the human”, “cDNA was PCR amplified from reverse-transcribed RNA pooled from rat thalamus, hypothalamus, striatum and prefrontal cortex with a sequence corresponding to by #338-1672 of Genbank file #NM_053506, encoding the entire 445-amino-acid rat histamine H3 receptor. This was engineered into the pIRES-neo3 mammalian expression vector, which was stably transfected into the CHO-A3 cell line (Euroscreen, Belgium), followed by clonal selection by limiting dilution. Cells” for “(GenBank: NM_007232)”
as §2

Which Ki [1] does the source give for `C[C@@H]1CCCN1CCc1ccc(-c2ccc(=O)n(-c3ccc(F)cc3)n2)cc1` [Example 67] here?
Its Ki is less than 100 nM.

What about the Ki [2] of the same molecule?
Its Ki is less than 100 nM.

With `Cn1nc(-c2ccc(CCN3CCCCC3)cc2)ccc1=O` [Example 64] as the molecule, how does the Ki [1] read?
The Ki was 100 to 1000 nM.

And the Ki [2]?
The Ki was 100 to 1000 nM.

How did the Ki [1] turn out when `Cn1ncc(Oc2ccc3c(c2)CCN(C2CCCC2)CC3)c(Br)c1=O` [Example 32, 4-Bromo-5-(3-cyclopentyl-2,3,4,5-tetrahydro-1H-benzo[d]azepin-7-yloxy)-2-methyl-2H-pyridazin-3-one] was run?
The Ki was less than 100 nM.

And the Ki [2]?
Its Ki is less than 100 nM.

With `CC(C)N1N=C(c2ccc3c(c2)CCNCC3)CCC1=O` [Example 3, 2-Isopropyl-6-(2,3,4,5-tetrahydro-1H-benzo[d]azepin-7-yl)-4,5-dihydro-2H-pyridazin-3-one] as the molecule, how does the Ki [1] read?
The Ki was 100 to 1000 nM.

And the Ki [2]?
Its Ki is 100 to 1000 nM.

For `C[C@@H]1CCCN1CCc1ccc(-c2ccc(=O)n(-c3ccccn3)n2)cc1` [Example 69], which Ki [1] is on record?
Its Ki is less than 100 nM.

And the Ki [2]?
The Ki was 100 to 1000 nM.

Which Ki [1] does the source give for `CCNCCc1ccc(-c2ccc(=O)n(C)n2)cc1` [Example 57] here?
The Ki was 100 to 1000 nM.

What about the Ki [2] of the same molecule?
Its Ki is 100 to 1000 nM.

What does the source list for `Cn1nc(-c2ccc(C(=O)N3CCC[C@H]3CN3CCCC3)cc2)ccc1=O` [Example 45, 2-Methyl-6-[4-((S)-2-pyrrolidin-1-ylmethyl-pyrrolidine-1-carbonyl)-phenyl]-2H-pyridazin-3-one]?
Ki [1]: < 100 nM; Ki [2]: < 100 nM

With `C[C@@H]1CCCN1CCc1ccc(-c2ccc(=O)n(Cc3ccccc3)n2)cc1` [Example 53] as the molecule, how does the Ki [1] read?
Its Ki is less than 100 nM.

What about the Ki [2] of the same molecule?
Its Ki is less than 100 nM.

For `O=C1NN=C(c2ccc3c(c2)CCNCC3)C2CCCC12` (stereo not drawn) [Example 41, 4-(2,3,4,5-Tetrahydro-1H-benzo[d]azepin-7-yl)-2,4-a,5,6,7,7a-hexahydro-cyclopenta[d]pyridazin-1-one], which Ki [1] is on record?
The Ki was 100 to 1000 nM.

And the Ki [2]?
The Ki was 100 to 1000 nM.

What does the source list for `Cn1nc(-c2ccc3c(c2)CCN(C2CCCC2)CC3)ccc1=O` [Example 23, 6-(3-Cyclopentyl-2,3,4,5-tetrahydro-1H-benzo[d]azepin-7-yl)-2-methyl-2H-pyridazin-3-one. HCl]?
Ki [1]: < 100 nM; Ki [2]: 100 to 1000 nM

`C[C@@H]1CCCN1CCc1ccc(-c2ccc(=O)n(-c3ccccc3)n2)cc1` [Example 66] was tested. Which Ki [1] did it give?
Its Ki is less than 100 nM.

And the Ki [2]?
The Ki was less than 100 nM.

For `C[C@@H]1CCCN1CCc1ccc(-c2ccc(=O)n(C)n2)cc1` [Example 63], which Ki [1] is on record?
The Ki was less than 100 nM.

What about the Ki [2] of the same molecule?
Its Ki is less than 100 nM.

For `CN(CCc1ccc(-c2ccc(=O)n(C)n2)cc1)C1CCCCC1` [Example 55], which Ki [1] is on record?
The Ki was 100 to 1000 nM.

What about the Ki [2] of the same molecule?
The Ki was 100 to 1000 nM.

With `CC(C)N1CCc2ccc(-c3ccc(=O)n(C)n3)cc2CC1` [Example 22, 6-(3-Isopropyl-2,3,4,5-tetrahydro-1H-benzo[d]azepin-7-yl)-2-methyl-2H-pyridazin-3-one. HCl] as the molecule, how does the Ki [1] read?
The Ki was 100 to 1000 nM.

And the Ki [2]?
Its Ki is 100 to 1000 nM.

For `CN(CCc1ccc(-c2ccc(=O)n(C)n2)cc1)C1CCC1` [Example 61], which Ki [1] is on record?
The Ki was less than 100 nM.

And the Ki [2]?
The Ki was 100 to 1000 nM.

What does the source list for `Cn1nc(-c2ccc(CCN3CCC3)cc2)ccc1=O` [Example 60]?
Ki [1]: 100 to 1000 nM; Ki [2]: 100 to 1000 nM

`O=c1ccc(-c2ccc(CCN3CCOCC3)cc2)nn1-c1ccccc1` [Example 68] was tested. Which Ki [1] did it give?
Its Ki is greater than 1000 nM.

What about the Ki [2] of the same molecule?
The Ki was greater than 1000 nM.

`O=c1c(Cl)c(Oc2ccc3c(c2)CCN(C2CCC2)CC3)cnn1CC(F)(F)F` [Example 34, 4-Chloro-5-(3-cyclobutyl-2,3,4,5-tetrahydro-1H-benzo[d]azepin-7-yloxy)-2-(2,2,2-trifluoro-ethyl)-2H-pyridazin-3-one] was tested. Which Ki [1] did it give?
Its Ki is less than 100 nM.

What about the Ki [2] of the same molecule?
The Ki was 100 to 1000 nM.

How did the Ki [1] turn out when `CC(C)n1nc(-c2ccc3c(c2)CCNCC3)ccc1=O` [Example 5, 2-Isopropyl-6-(2,3,4,5-tetrahydro-1H-benzo[d]azepin-7-yl)-2H-pyridazin-3-one] was run?
The Ki was 100 to 1000 nM.

What about the Ki [2] of the same molecule?
The Ki was 100 to 1000 nM.

With `CS(=O)(=O)c1ccc(-n2nc(-c3ccc4c(c3)CCNCC4)ccc2=O)cc1` [Example 24, 2-(4-Methanesulfonyl-phenyl)-6-(2,3,4,5-tetrahydro-1H-benzo[d]azepin-7-yl)-2H-pyridazin-3-one] as the molecule, how does the Ki [1] read?
Its Ki is greater than 1000 nM.
